Patent publication US20170095512A1, “METHODS OF INDUCING MYELINATION AND MATURATION OF OLIGODENDROCYTES” (KADIMASTEM LTD., priority 2014, published 2017)
“Also recorded” adds a separate entry of the source.

What was measured:
[1] = tested on: human OPC derived from ES cells (O4+ cells); assay: hOPC differentiation assay, O4+ cells (immunostaining, high content screening); type: cell-based
Description: In order to initiate differentiation 20,000 GPCs were seeded in each well of Matrigel coated plates of 96 wells, or on PolyD-Lysine/laminin (PDL/lam)-coated 96 well plates. Cells were grown in GM media for two to three days. Then GM was replaced by differentiation medium without growth factors, (DMEM/F12, 1% B27, 0.5% N2, Vitamin C (Sigma, 50 ug/ml). Differentiation medium was supplemented with the following tested compounds: […] All media were replaced every other day. Oligodendrocytes were characterized by the presence of the antigen detected by the monoclonal antibody O4 (IgM (R&D). Living cells reacted with O4 antibody diluted 1/200 in medium without growth factors (50 ul/well) and left for 40 minutes in the incubator at 37° C., washed once with GM, fixed with PFA 4% (170 ul per well) for 20 minutes at room temperature, washed 3 times with PBS. Dapi diluted to 0.5 ug/ml was introduced in the second wash for 10 min Afterwards the preparation was blocked with 5% normal goat serum in PBS-- for 20 min, washed and reacted with goat anti mouse IgM Ab-FITC conjugated (Millipore cat A[…]) diluted 1/500, for 45 minutes at room temperature, and washed three times with PBS--. ArrayScan VTI HCS reader system (Cellomis, Thermo-scientific) was used for scanning at least 20 fields for each tested well under 10× objective in both assays (differentiation and myelination). Cellomics Neural profiling bio-application was used for processing and analyzing the images. For differentiation assay, the following parameters were tested: number and percentage of O4+ cells, number of processes, processes length and number of branching points. For myelination assay, the same morphological parameters were tested and in addition: areas of myelinated axons in pixels (MBP&NF overlap area) and Number of myelinated regions (MBP&NF overlap count) were also analyzed. Modifications in the Neuro-profiling bio-application were conducted for this specific purpose. T-test analysis was used to compare between treatments. The 4-parameter Hill-Slope curve fittings were generated by GraphPad Prism software using least squares fitting method and EC50 values were calculated.

[2] = tested on: glial progenitor cells derived from human ES cells (Olig2 positive cells); assay: hOPC differentiation assay, Olig2 positive cells (immunostaining, high content screening); type: cell-based
Description: In order to initiate differentiation 20,000 GPCs were seeded in each well of Matrigel coated plates of 96 wells, or on PolyD-Lysine/laminin (PDL/lam)-coated 96 well plates. Cells were grown in GM media for two to three days. Then GM was replaced by differentiation medium without growth factors, (DMEM/F12, 1% B27, 0.5% N2, Vitamin C (Sigma, 50 ug/ml). Differentiation medium was supplemented with the following tested compounds: […] All media were replaced every other day. The oligodendrocyte lineage cells were characterized by the expression of a transcription factor olig2. The rabbit polyclonal AB anti olig2 (Millipore cat AB9610) was added to PFA fixed cells. […] The fixed cells were washed three times in blocking solution, olig2 diluted 1/500, in blocking solution, was added for 1 hour. The fixed cells were washed with PBS 3 times and goat anti rabbit Alexa Fluor 568 1/500 in PBS was added for 45 minutes. The fixed cells were washed three times. ArrayScan VTI HCS reader system (Cellomis, Thermo-scientific) was used for scanning at least 20 fields for each tested well under 10× objective in both assays (differentiation and myelination). Cellomics Neural profiling bio-application was used for processing and analyzing the images. For differentiation assay, the following parameters were tested: number and percentage of O4+ cells, number of processes, processes length and number of branching points. For myelination assay, the same morphological parameters were tested and in addition: areas of myelinated axons in pixels (MBP&NF overlap area) and Number of myelinated regions (MBP&NF overlap count) were also analyzed. Modifications in the Neuro-profiling bio-application were conducted for this specific purpose. T-test analysis was used to compare between treatments. The 4-parameter Hill-Slope curve fittings were generated by GraphPad Prism software using least squares fitting method and EC50 values were calculated. […] The cells at passage five were cultured for three days with GM on 96 well plates and after fixation, cells were reacted with anti-olig2 Ab, and olig2 positive cells and nuclei were scanned in the Thermo Scientific™ ArrayScan™ XTI High Content Analysis (HCA) Reader and counted with the neural profiling program. On the other hand the cells surface antigens O4 and PDGFRa were detected on dissociated cells after fixation and reaction with O4 Ab conjugated to APC, anti PDGFRa PE, as well as A2B5 PE all obtained from BD. Flow cytometry was conducted in BD FACS Canto II. […] Time points used for analysis are 21, 28, 35 and 42 days of differentiation, for each time point 20 fields were analyzed. […] In this experiment, cells at passage 4 were pretreated in differentiation medium with Noggin for 14 days, and split before seeding on 96 well plates.

[3] = day 21, Noggin 50 ng/ml + PDGF 20 ng/ml, Dorsomorphin 2 μM, LDN-193189 125 nM

c1ccc2c(-c3cnn4cc(-c5ccc(N6CCNCC6)cc5)cnc34)ccnc2c1 [LDN-193189]
O4+ cells number / conversion of Olig2+ cells into O4+ cells (summary statement) [1]: increased the number of O4+ and Olig2+ cells; also recorded: stimulates
number of O4+ cells [1, 3]: increase in the number of O4+ cells
number of processes per cell ([1]; dose dependent manner): increased
total length of processes ([1]; dose dependent manner): increased
Olig2+ cells number / differentiation (summary statement) [2]: increased the number of O4+ and Olig2+ cells; also recorded: stimulates the formation of olig2 positive cells
EC50 ([2]; 21 days, differentiation medium without noggin, with or without PDGF (20 ng/ml), read-out: EC50 (percentage of olig2 positive cells)): ~30 nM
number / percentage of Olig2+ cells (hOPC commitment) [2, 3]: increased the number of Olig2+
conversion of neural stem cells to Olig2 positive cells ([2]; days 21, 28, 35, 42, noggin 100 ng/ml, LDN-193189 62.5 nM and 125 nM): stimulate the conversion of neural stem cells to Olig2 positive cells
